Entries after “also recorded” stand apart in the source; their conditions may differ.
Experiments:
AR = assay: Western blot of AR expression in CWR22Rv1 cell lysates; format: cell-based; details: CWR22Rv1 cells, FIG. 2A
Protocol: (§1) “AR-Variants” represents a combination of all forms of AR.
(§2) The effects of the synthetic small molecule modulators on AR and AR variant expression were determined. CWR22Ry1 prostate cancer cells were treated with different compounds. Protein lysates were analyzed for AR and AR variant expression.

AR-V7 [1] = target: T1, AR-V7 (Homo sapiens, UniProt P10275); assay: Western blot of AR-V7 expression in CWR22Rv1 cell lysates; format: cell-based; parameters: endogenous in cells; host or cells: CWR22Rv1 prostate cancer cells (also grown as xenograft tumours); details: CWR22Rv1 cells, FIG. 2A
T1 sequence (P10275 1-644 isoform P10275-3): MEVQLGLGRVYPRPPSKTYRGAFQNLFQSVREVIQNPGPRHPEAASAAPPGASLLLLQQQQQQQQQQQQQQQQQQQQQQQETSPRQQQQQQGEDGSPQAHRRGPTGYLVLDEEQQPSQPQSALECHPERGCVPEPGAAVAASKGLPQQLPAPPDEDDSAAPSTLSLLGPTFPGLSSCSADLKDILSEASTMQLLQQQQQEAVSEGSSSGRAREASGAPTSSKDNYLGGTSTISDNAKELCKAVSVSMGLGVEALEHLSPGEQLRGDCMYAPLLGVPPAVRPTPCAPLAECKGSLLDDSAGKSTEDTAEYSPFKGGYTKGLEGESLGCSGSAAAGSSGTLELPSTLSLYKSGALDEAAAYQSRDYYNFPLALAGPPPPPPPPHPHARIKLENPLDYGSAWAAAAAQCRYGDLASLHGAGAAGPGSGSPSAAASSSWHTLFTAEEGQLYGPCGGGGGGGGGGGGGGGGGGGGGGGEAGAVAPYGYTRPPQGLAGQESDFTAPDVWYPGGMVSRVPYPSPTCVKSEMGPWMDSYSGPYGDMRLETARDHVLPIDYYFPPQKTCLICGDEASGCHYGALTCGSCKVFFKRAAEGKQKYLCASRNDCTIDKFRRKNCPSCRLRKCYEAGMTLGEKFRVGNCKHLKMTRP
Protocol: as §1, §2

CWR22Rv1 cells [2] = assay: Cell growth assay (cell numbers), CWR22Rv1; format: cell-based; details: for synergy with abiraterone in inhibiting cell growth: CWR22Rv1, analog 0.25 μM + abiraterone 5 μM; for cell growth, combination with abiraterone: CWR22Rv1, analog 0.25 μM + abiraterone 5 μM, 0, 3, 5 days; for cell growth, combination with abiraterone / cell growth, combination with enzalutamide: FIGS. 9, 11; for cell growth, combination with enzalutamide: CWR22Rv1, analog 0.25 μM + enzalutamide 20 μM, 0, 3, 5 days; for cell growth, niclosamide analog alone: CWR22Rv1, analog 0.25 μM, 0, 3, 5 days, FIGS. 9, 11, 12; for cell growth, combination with bicalutamide: CWR22Rv1, analog 0.25 μM + bicalutamide 20 μM, 0, 3, 5 days; for synergy with enzalutamide in inhibiting cell growth: CWR22Rv1, analog 0.25 μM + enzalutamide 20 μM
Protocol: DMSO treatment was used as a negative control. Total cell numbers were counted at 0, 3, and 5 days.
DMSO treatment was used as a negative control. Total cell numbers were counted at 0, 3, and 5 days. […]
The cell growth was determined at 3,5 days. […] The cell growth was determined at 3,5 days.

C4-2B MDVR cells = assay: Cell growth assay (cell numbers), C4-2B MDVR; format: cell-based; details: for cell growth: increasing doses of niclosamide/analogs, FIG. 6; for synergy with abiraterone in inhibiting cell growth / synergy with enzalutamide in inhibiting cell growth: C4-2BMDVR, FIG. 10; for synergy with abiraterone in inhibiting cell growth: analog 0.25 μM + abiraterone 5 μM; for synergy with enzalutamide in inhibiting cell growth: analog 0.25 μM + enzalutamide 20 μM
CWR22Rv1 cells [3] = assay: Cell growth assay (cell numbers), CWR22Rv1; format: cell-based; details: for cell growth: CWR22Rv1, 48 hours, increasing doses of niclosamide/analogs, FIG. 6
PSA = PSA protein expression by ELISA in C4-2 cells overexpressing AR-V7; format: cell-based; details: C4-2-V7 cells, FIG. 3
Protocol: PSA protein expression was determined by ELISA assay. * denotes p<0.05.

C4-2-V7 cells = assay: Cell growth assay (cell numbers), C4-2-V7; format: cell-based; details: C4-2-V7, 0.5 μM + enzalutamide, 48 hours, FIG. 7D
C4-2BMDVR cells = assay: ELISA cell death (apoptosis) assay; format: cell-based; details: FIG. 8
Protocol: To further examine the anti-cancer effects of these compounds, an ELISA cell death assay was performed.

C4-2B AbiR cells = assay: Cell growth assay (cell numbers), C4-2B AbiR; format: cell-based; details: 0.5 μM + enzalutamide, 48 hours, FIG. 7C
AR-V7 [4] = target: T1, AR-V7; assay: PSA-luc reporter in LNCaP cells co-transfected with AR-V7; details: LNCaP cells co-transfected with AR-V7, FIG. 4
Protocol: The luciferase activity was then determined. * denotes p<0.05.
In addition, the effects on AR transcriptional activity were determined using PSA-luc as a reporter. LNCaP cells were cotransfected with PSA-luc together with or without AR-V7, and treated with the compounds.

Row | SMILES | AR expression (AR) | AR-V7 (AR variant) expression (AR-V7 [1]) | synergy with abiraterone in inhibiting cell growth (CWR22Rv1 cells [2]) | cell growth, combination with abiraterone (CWR22Rv1 cells [2]) | cell growth, combination with enzalutamide (CWR22Rv1 cells [2]) | cell growth, niclosamide analog alone (CWR22Rv1 cells [2]) | further results
1 | O=C(Nc1cc(F)cc(F)c1)c1cc(Cl)ccc1O [Compound 17] | no effect | no effect | but not Compounds 2 and 17, were able to synergize | nor was a combination of either of these compounds with enzalutamide or abiraterone able to inhibit | nor was a combination of either of these compounds with enzalutamide or abiraterone able to inhibit | neither Compounds 2 nor Compound 17 alone were able to inhibit | –
2 | CNC(=O)c1ccc(N2C(=S)N(c3cnc(C#N)c(C(F)(F)F)c3)C(=O)C23CCC3)cc1F [ARN509, reference compound] | – | – | – | – | – | – | cell growth (C4-2B MDVR cells; C4-2B MDVR, 48 hours): did not inhibit; cell growth (CWR22Rv1 cells [3]): did not inhibit
3 | COC(=O)COc1ccc(Cl)cc1C(=O)Nc1ccc([N+](=O)[O-])cc1Cl [Compound 34] | no effect | no effect | – | – | nor the was the combination of these compounds with enzalutamide or abiraterone able to inhibit | Neither of Compounds 1 or 34 alone were able to inhibit; also recorded: None of Compounds 1, 7, 30, 31, or 34 alone were able to inhibit | synergy with abiraterone in inhibiting cell growth (C4-2B MDVR cells): neither Compound 1 nor Compound 34 were able to synergize; synergy with enzalutamide in inhibiting cell growth (C4-2B MDVR cells): neither Compound 1 nor Compound 34 were able to synergize; cell growth, combination with bicalutamide (CWR22Rv1 cells [2]; FIG. 12): not able to inhibit
4 | C[C@]12CC[C@H](O)CC1=CC[C@@H]1[C@@H]2CC[C@]2(C)C(c3cccnc3)=CC[C@@H]12 [abiraterone, reference compound] | – | – | – | – | – | – | cell growth (C4-2B MDVR cells; C4-2B MDVR, 48 hours): did not inhibit; cell growth (CWR22Rv1 cells [3]): did not inhibit
5 | CNC(=O)c1ccc(N2C(=S)N(c3ccc(C#N)c(C(F)(F)F)c3)C(=O)C2(C)C)cc1F [enzalutamide, reference compound] | – | – | – | – | – | – | cell growth (C4-2B MDVR cells; C4-2B MDVR, 48 hours): did not inhibit; cell growth, antiandrogen alone (CWR22Rv1 cells [2]; CWR22Rv1, enzalutamide 20 μM or abiraterone 5 μM, 0, 3, 5 days, FIG. 9): resistant; cell growth (CWR22Rv1 cells [3]): did not inhibit
6 | CCC(=O)Oc1ccc(Cl)cc1C(=O)Nc1ccc([N+](=O)[O-])cc1Cl [Compound 30] | inhibited | inhibited | able to synergize | significantly inhibited | significantly inhibited | None of Compounds 1, 7, 30, 31, or 34 alone were able to inhibit | PSA expression (PSA; compound alone, ELISA): inhibited; enzalutamide-mediated PSA inhibition (PSA; in presence of enzalutamide (MDV)): further enhanced; cell proliferation, combination with enzalutamide (MDV) (C4-2B MDVR cells; C4-2B MDVR, 0.5 μM + enzalutamide, 48 hours, FIG. 7B): further inhibited; synergy with abiraterone in inhibiting cell growth (C4-2B MDVR cells): able to synergize; synergy with enzalutamide in inhibiting cell growth (C4-2B MDVR cells): able to synergize; cell growth, combination with bicalutamide (CWR22Rv1 cells [2]; FIG. 12): able to significantly inhibit; synergy with bicalutamide in inhibiting cell growth (CWR22Rv1 cells [2]; CWR22Rv1, analog 0.25 μM + bicalutamide 20 μM, FIG. 12): able to synergize; synergy with enzalutamide in inhibiting cell growth (CWR22Rv1 cells [2]): able to synergize; cell proliferation, combination with enzalutamide (MDV) (CWR22Rv1 cells [3]; CWR22Rv1, 0.5 μM + enzalutamide, 48 hours, FIG. 7A): further inhibited; cell proliferation, combination with enzalutamide (MDV) (C4-2-V7 cells): further inhibited; cell apoptosis (C4-2BMDVR cells; compound alone, analogs compared with niclosamide): further enhanced; apoptotic cell death, combination with enzalutamide (MDV) (C4-2BMDVR cells; with enzalutamide): further increased; cell proliferation, combination with enzalutamide (MDV) (C4-2B AbiR cells): further inhibited; AR-V7 mediated PSA-luc activity (AR-V7 [4]): inhibited
7 | CC(C)(C)OC(=O)COc1ccc(Cl)cc1C(=O)Nc1ccc([N+](=O)[O-])cc1Cl [Compound 35] | no effect | no effect | – | – | – | – | –
8 | O=C(O)COc1ccc(Cl)cc1C(=O)Nc1ccc([N+](=O)[O-])cc1Cl [Compound 29] | no effect | no effect | – | – | – | – | –
9 | O=C(Nc1cc(C(F)(F)F)cc(C(F)(F)F)c1)c1cc(Cl)ccc1O [Compound 11] | – | – | able to synergize | able to significantly inhibit | able to significantly inhibit | – | synergy with enzalutamide in inhibiting cell growth (CWR22Rv1 cells [2]): able to synergize
10 | O=C(Nc1ccc([N+](=O)[O-])cc1Cl)c1cccc(Cl)c1 [Compound 1] | no effect | no effect | – | – | nor the was the combination of these compounds with enzalutamide or abiraterone able to inhibit | Neither of Compounds 1 or 34 alone were able to inhibit; also recorded: None of Compounds 1, 7, 30, 31, or 34 alone were able to inhibit | synergy with abiraterone in inhibiting cell growth (C4-2B MDVR cells): neither Compound 1 nor Compound 34 were able to synergize; synergy with enzalutamide in inhibiting cell growth (C4-2B MDVR cells): neither Compound 1 nor Compound 34 were able to synergize; cell growth, combination with bicalutamide (CWR22Rv1 cells [2]; FIG. 12): not able to inhibit
11 | O=C(Nc1ccc([N+](=O)[O-])cc1Cl)c1ccccc1O [Compound 2] | no effect | no effect | but not Compounds 2 and 17, were able to synergize | nor was a combination of either of these compounds with enzalutamide or abiraterone able to inhibit | nor was a combination of either of these compounds with enzalutamide or abiraterone able to inhibit | neither Compounds 2 nor Compound 17 alone were able to inhibit | –
12 | O=C(Nc1cc(C(F)(F)F)cc(C(F)(F)F)c1)c1cc(Cl)ccc1O [Compound 5] | inhibited | inhibited | – | – | – | – | –
13 | O=C(Nc1ccccc1Cl)c1cc(Cl)ccc1O [Compound 8] | no effect | no effect | – | – | – | – | –
